# Columns and labels:
# [1] = Oral gavage delivery of NCT to DIO mice; format: in vivo, mouse
# Procedure: (§1) 12-week-old C57BL/6J DIO male mice were purchased from Jackson laboratory (cat #380050) and were fed with high fat diet (Research Diets, cat #D12492 60 kcal % fat). […] 14 week old mice were injected subcutaneously using sterile insulin syringes filled with DMSO or NCT (200 mg/kg of mouse body weight) bid for 2 weeks. For oral gavage, 14-week-old C57BL/6J DIO male mice were fed by oral gavage using a feeding needle attached to a sterile 1 ml syringe filled with 200 μL of methyl cellulose (MC, vehicle control) or 200 μL of NCT (200 mg/kg) dissolved in methyl cellulose twice a day for 2 weeks. […] For analysis all mice were sacrificed after 2 weeks of treatment.
# IL-6 mRNA = assay: qPCR primary human hepatocytes, IL-6 mRNA; format: cell-based; details: NCT 5, 15, 40 μM
# Procedure: (§2) Experiments with primary human hepatocytes were performed by CN-Bio (Cambridge, UK). Briefly, primary human hepatocytes (PHHs), human Kupffer cells (HKs) and human stellate cells (HSCs) were seeded onto CN-Bio's PhysioMimix LC12 MPS culture plates at 6×10^5 cells for PHHs and 6×10^4 cells for HKs and HSCs in 1.6 ml of CN-Bio's HEP-lean media with 5% FCS. Throughout the experiment the cells were maintained at a flow rate of 1 μl/s. After 24 hours (Day 1) of seeding, the media was changed to HEP-lean media and the cells were incubated until day 4 to allow the cells to form microtissues. At day 4 post seeding, media was changed to HEP-fat media and treated with DMSO or NCT (5, 15, 40 μM). Media was replaced on days 6 and 8. Cells were harvested on day 10 for RNA extraction and culture media was collected for ELISA analysis.
# (§3) Total RNA was isolated from liver tissues and primary human hepatocytes using Trizol (Invitrogen). cDNA was amplified using 3 μg of total RNA using qScript cDNA SuperMix (Quanta BioSciences, Beverly, MA, USA). Quantitative real time PCR (RT-PCR) analysis was performed using SYBR® Select Master Mix (Applied Biosystems) and an ABI 7900HT thermal cycler (Applied Biosystems, Thermo Fisher Scientific). Ct values were normalized to 18s rRNA and are expressed as fold change over samples from mice fed NC or cultured human hepatocytes without NCT.
# [2] = Triglyceride analysis in liver, serum and stool; format: in vivo, mouse; details: HFD+NCT vs HFD
# Procedure: The TG level in mouse liver, serum and stool was measured according to manufacturer's instructions using the Triglyceride Calorimetric Assay Kit (Cat #10010303, Cayman Chemicals, USA). Liver and stool TG was normalized with liver and stool weight, respectively. Fold change was calculated by normalizing to values from mice fed NC.
# TNFα mRNA [3] = assay: qPCR mouse liver, TNFα mRNA; format: in vivo; details: HFD+NCT vs HFD
# Procedure: as §3
# T6PNE cells = assay: Nitric oxide assay, T6PNE cells treated with palmitate; format: cell-based; details: palmitate plus 15 μM NCT, 3 days, normalized to protein
# Procedure: T6PNE cells were maintained in RPMI (5.5 mM glucose, Corning) supplemented with 10% fetal bovine serum (FBS, Sigma-Aldrich) and 1% penicillin-streptomycin (pen-strep, Gibco) in 5% CO2 at 37° C. Cells were treated with […] palmitate plus 0 or 15 μM NCT for 3 days in 10 cm plates and harvested with 500 μl PBS. For tissue specimens, snap frozen mouse liver was weighed and homogenized with PBS. NO was measured with the QuantiChrom Nitric Oxide Assay kit (D2NO-100, BioAssay Systems). Homogenized samples (150 μl) were processed for deproteination with 8 μl ZnSO4 and 8 μl NaOH. For normalization, an aliquot of samples from T6PNE cells was taken for BCA assay before deproteination. Samples and standard from kit incubated with reagents for 20 min at 60° C. and measured OD 540 nm.
# Palmitate (150 mM) (Sigma-Aldrich) was prepared in 50% ethanol and precomplexed with 15% fatty acid-free BSA (Research Organics, Cleveland, OH, USA) in a 37° C. water shaker. […] precomplexed palmitate was used as a 12 mM stock solution for all assays with a final concentration of 0.12 mM palmitate in cell culture medium.
# TNFα mRNA [4] = assay: qPCR primary human hepatocytes, TNFα mRNA; format: cell-based; details: NCT 5, 15, 40 μM
# Procedure: as §2, §3
# [5] = Subcutaneous delivery of NCT to DIO mice; format: in vivo, mouse; details: 2 weeks
# Procedure: as §1
# Sirtuin3 mRNA = assay: qPCR primary human hepatocytes, Sirtuin3 mRNA; format: cell-based; details: NCT 5, 15, 40 μM
# Procedure: as §2, §3
# Sirtuin1 mRNA = assay: qPCR primary human hepatocytes, Sirtuin1 mRNA; format: cell-based; details: NCT 5, 15, 40 μM
# Procedure: as §2, §3
compound,measurement,setting,value
"O=C(/C=C/c1ccc(O)c(O)c1)NCCc1ccc(O)cc1 [NCT, N-transcaffeoyltyramine]",liver color after oral gavage NCT,"[1]; 200 mg/kg bid, 2 weeks, vs methyl cellulose",No difference in liver color
same,outcome of oral gavage delivery,"[1]; 200 mg/kg in methyl cellulose, 2 doses per day, 2 weeks",compound precipitation
same,NCT compound level in serum and stool,[1]; following oral gavage 200 mg/kg bid,present in stool but not serum
same,IL-6 mRNA in cultured human hepatocytes,IL-6 mRNA,reduced
same,hepatic TG,[2]; normalized to liver weight,lower TG
same,circulating TG,"[2]; serum, 10 weeks",no difference
same,TNFα mRNA in mouse liver,TNFα mRNA [3],significantly reduced
same,nitric oxide (NO) in cultured cells treated with palmitate,T6PNE cells,decreased
same,TNFα mRNA in cultured human hepatocytes,TNFα mRNA [4],decreased in a dose-responsive manner
same,liver color after subcutaneous NCT,"[5]; 200 mg/kg bid, vs DMSO",No difference in liver color
same,outcome of subcutaneous delivery,"[5]; 200 mg/kg, 2 doses per day, subcutaneous",compound precipitation
same,Sirtuin3 mRNA in primary human hepatocytes,Sirtuin3 mRNA,significant effect
same,Sirtuin1 mRNA in primary human hepatocytes,Sirtuin1 mRNA,significant effect
